This is an account of results in ChEMBL document CHEMBL2401685 (Bioorg Med Chem Lett, 2013).

Assay [1] has as its target T1, 11-beta-hydroxysteroid dehydrogenase 1 (Homo sapiens, UniProt P28845). Briefly: Inhibition of human 11beta-HSD1 transfected in CHOP cells at 100 uM relative to control. The class given is cell-based.
Assay [2] concerns the target T1, 11-beta-hydroxysteroid dehydrogenase 1. Nature of the assay: Inhibition of 11beta-HSD1 in human liver microsomes using [3H]-cortisone as substrate assessed as formation of cortisol at 100 uM after 60 to 90 mins by radiometric analysis relative to control. The note with it: Microsome.
For assay [3], the target named is T2, 11-beta-hydroxysteroid dehydrogenase type 2 (Rattus norvegicus) (UniProt P50233).
T2 sequence (whole entry): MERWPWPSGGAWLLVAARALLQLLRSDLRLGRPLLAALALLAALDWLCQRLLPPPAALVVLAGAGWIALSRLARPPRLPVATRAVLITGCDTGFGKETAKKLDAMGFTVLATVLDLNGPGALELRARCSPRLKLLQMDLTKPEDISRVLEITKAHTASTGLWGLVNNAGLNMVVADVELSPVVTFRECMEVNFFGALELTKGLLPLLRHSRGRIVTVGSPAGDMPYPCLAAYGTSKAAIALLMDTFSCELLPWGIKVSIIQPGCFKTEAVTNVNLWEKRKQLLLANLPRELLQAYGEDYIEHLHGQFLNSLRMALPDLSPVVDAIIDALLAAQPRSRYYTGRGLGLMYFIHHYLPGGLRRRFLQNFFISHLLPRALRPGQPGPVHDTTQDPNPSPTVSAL
Briefly: Inhibition of 11beta-HSD2 in rat kidney microsomes using [3H]-CORT as substrate assessed as formation of 11-DHC at 100 uM after 30 mins by radiometric analysis relative to control. The note with it: Microsome.

Another assay concerns J774.A1. Nature of the assay: Antiinflammatory activity in mouse J774A1 cells assessed as LPS-induced TNFalpha production at 10 uM incubated 2 hrs prior to LPS challenge measured after 24 hrs by ELISA relative to vehicle-treated control. It counts as functional.
Assay [4] addresses T3, 11-beta-hydroxysteroid dehydrogenase type 2 (Homo sapiens) (UniProt P80365).
T3 sequence (whole entry): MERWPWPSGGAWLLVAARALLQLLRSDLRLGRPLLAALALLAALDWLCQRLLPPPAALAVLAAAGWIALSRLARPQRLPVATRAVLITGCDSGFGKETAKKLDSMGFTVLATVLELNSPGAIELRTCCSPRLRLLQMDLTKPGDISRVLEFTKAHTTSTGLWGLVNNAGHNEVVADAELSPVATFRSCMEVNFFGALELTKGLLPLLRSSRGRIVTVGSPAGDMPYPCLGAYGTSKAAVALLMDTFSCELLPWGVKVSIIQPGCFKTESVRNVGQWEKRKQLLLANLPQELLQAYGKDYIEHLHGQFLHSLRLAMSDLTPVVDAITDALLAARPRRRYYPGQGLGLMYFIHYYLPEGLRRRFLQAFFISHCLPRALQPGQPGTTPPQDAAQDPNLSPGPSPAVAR
Briefly: Inhibition of 11beta-HSD2 in human kidney microsomes using [3H]-cortisol as substrate assessed as formation of cortisone at 100 uM after 30 mins by radiometric analysis relative to control. The settings on record: Microsome.

In assay [5] the target is 11-beta-hydroxysteroid dehydrogenase 1 (Rattus norvegicus) (UniProt P16232). Nature of the assay: Inhibition of 11beta-HSD1 in rat testis microsomes using [3H]-11-DHC as substrate assessed as formation of CORT at 100 uM after 60 to 90 mins by radiometric analysis relative to control. The note with it: Microsome.
Assay [6] shares this target. Briefly: Inhibition of 11beta-HSD1 in Sprague-Dawley rat leydig cells […] relative to control. The settings on record: 100 uM.
In assay [7] the target is 11-beta-hydroxysteroid dehydrogenase 1 (Rattus norvegicus, UniProt P16232). Nature of the assay: Inhibition of 11beta-HSD1 in Sprague-Dawley rat leydig cells […].

Calls of active or inactive are those of the source. The rule behind the calls is not given here.

Sequence of 11-beta-hydroxysteroid dehydrogenase 1 (Rattus norvegicus, UniProt P16232) (P16232 whole entry): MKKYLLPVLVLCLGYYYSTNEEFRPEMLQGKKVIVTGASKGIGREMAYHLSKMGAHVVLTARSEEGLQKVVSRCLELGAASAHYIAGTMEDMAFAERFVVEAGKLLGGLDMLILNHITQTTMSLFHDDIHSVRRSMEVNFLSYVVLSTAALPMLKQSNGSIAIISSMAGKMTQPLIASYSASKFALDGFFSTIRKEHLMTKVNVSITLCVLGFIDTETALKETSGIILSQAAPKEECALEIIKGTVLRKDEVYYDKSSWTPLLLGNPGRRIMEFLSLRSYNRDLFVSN
Sequence of 11-beta-hydroxysteroid dehydrogenase 1 (Rattus norvegicus) (P16232 whole entry, looked up): as the sequence (P16232 whole entry) above
T1 sequence (P28845 whole entry, looked up): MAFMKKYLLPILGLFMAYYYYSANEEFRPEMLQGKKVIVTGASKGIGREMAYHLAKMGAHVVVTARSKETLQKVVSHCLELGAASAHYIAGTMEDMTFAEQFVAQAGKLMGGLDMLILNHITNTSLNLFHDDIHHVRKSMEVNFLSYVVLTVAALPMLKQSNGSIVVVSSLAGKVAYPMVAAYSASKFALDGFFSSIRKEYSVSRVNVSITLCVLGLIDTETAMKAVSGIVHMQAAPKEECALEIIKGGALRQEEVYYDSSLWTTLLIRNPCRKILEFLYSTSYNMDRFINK

With `CN(C)c1ccc(/C=C2\CC/C(=C\c3ccc(N(C)C)cc3)C2=O)cc1`, the inhibition in assay [1] was 16%; in assay [2], 15%; in assay [3], 1%; in assay [4], 0%; in assay [5], 0%; in assay [6], 13%. For the same compound, in the assay on J774.A1, the inhibition result was “inactive”.
Consider `COc1cc(/C=C/C(=O)/C=C/c2cc(OC)c(OC)c(OC)c2)cc(OC)c1OC`, for which the inhibition in assay [1] is 40%; in assay [2], 16%; in assay [3], 11%; in assay [4], 1%; in assay [5], 0%; in assay [6], 5%. Moreover, the inhibition entry in the assay on J774.A1 was “inactive”.
Turning to `CCOc1ccc(/C=C/C(=O)/C=C/c2ccc(OCC)cc2)cc1`, the inhibition in assay [1] came to 9%; in assay [2] it was 36%; in assay [3] it was 27%; in assay [4], 8%; in assay [5], 7%. The compound further displayed an IC50 in assay [7] of 9.95 µM.
As for `COc1cc(/C=C2\CC/C(=C\c3cc(OC)c(OC)c(OC)c3)C2=O)cc(OC)c1OC`, the inhibition came to 31% in assay [1]; 16% in assay [2]; 9% in assay [3]; 5% in assay [4]; 12% in assay [5]; 18% in assay [6]. In addition, in the assay with J774.A1, the inhibition entry is “inactive”.
In the case of `O=C1/C(=C/c2cccc(C(F)(F)F)c2F)CC/C1=C\c1cccc(C(F)(F)F)c1F`, the inhibition in assay [1] was 24%; in assay [2] it was 23%; in assay [3], 5%; in assay [4], 0%; in assay [5] it was 2%; in assay [6], 22%.
As to `CN(C)c1ccc(/C=C2\CCC/C(=C\c3ccc(N(C)C)cc3)C2=O)cc1`, the inhibition in assay [1] was 26%; in assay [2] it was 14%; in assay [3], 20%; in assay [4], 21%; in assay [5], 16%; in assay [6] it was 37%. In addition, the inhibition result in the assay on J774.A1 was “inactive”.
For the compound `C=CCOc1ccc(/C=C/C(=O)/C=C/c2ccc(OCC=C)cc2)cc1`, the inhibition in assay [1] is 4%; in assay [2] it was 35%; in assay [3], 16%; in assay [4] it was 2%; in assay [5] it was 0%; in assay [6] it was 22%.
Regarding `CCOc1ccc(/C=C2\CCC/C(=C\c3ccc(OCC)cc3)C2=O)cc1`, the inhibition in assay [1] was determined as 16%; in assay [2], 17%; in assay [3] it was 14%; in assay [4], 11%; in assay [5], 17%; in assay [6], 26%.
Turning to `C=CCOc1ccc(/C=C/C(=O)/C=C/c2ccc(OCC=C)c(OC)c2)cc1OC`, the inhibition was 1% in assay [1]; 14% in assay [2]; 19% in assay [3]; 13% in assay [4]; 9% in assay [5]; 18% in assay [6].
For `CN(C)CCCOc1ccc(/C=C2\CC/C(=C\c3ccc(OCCCN(C)C)cc3)C2=O)cc1`, the inhibition in assay [1] was found to be 49%; in assay [2], 15%; in assay [3] it was 12%; in assay [4] it was 24%; in assay [5], 2%. In assay [7], this compound registered an IC50 of 4.17 µM.
Take `O=C1/C(=C/c2ccc(O)cc2)CC/C1=C\c1ccc(O)cc1`: the inhibition in assay [1] came to 12%; in assay [2], 39%; in assay [3], 17%; in assay [4] it was 0%; in assay [5], 32%; in assay [6], 21%.
As for `C=CCOc1ccc(/C=C2\CC/C(=C\c3ccc(OCC=C)c(OC)c3)C2=O)cc1OC`, the inhibition in assay [1] amounted to 31%; in assay [2], 13%; in assay [3], 0%; in assay [4], 10%; in assay [5], 14%; in assay [6] it was 17%.
As for `COc1cc(/C=C2\CC/C(=C\c3ccc(O)c(OC)c3)C2=O)ccc1O`, the inhibition in assay [1] is 17%; in assay [2], 49%; in assay [3], 34%; in assay [4], 13%; in assay [5], 52%; in assay [6] it was 19%.
Regarding `COc1cc(/C=C/C(=O)/C=C/c2ccc(OC3CCCCO3)c(OC)c2)ccc1OC1CCCCO1` (centres undefined), the inhibition in assay [1] worked out at 28%; in assay [2] it was 28%; in assay [3], 16%; in assay [4], 0%; in assay [5], 19%. The same compound yielded an IC50 in assay [7] of 52.5 µM.
In the case of `C=CCOc1ccc(/C=C2\CC/C(=C\c3ccc(OCC=C)cc3)C2=O)cc1`, the inhibition in assay [1] is 23%; in assay [2] it was 28%; in assay [3], 15%; in assay [4], 0%; in assay [5] it was 9%; in assay [6] it was 10%.
For the compound `COc1cc(/C=C2\CC/C(=C\c3ccc(OC4CCCCO4)c(OC)c3)C2=O)ccc1OC1CCCCO1` (centres undefined), the inhibition worked out at 26% in assay [1]; 26% in assay [2]; 11% in assay [3]; 0% in assay [4]; 13% in assay [5]; 18% in assay [6]. Moreover, the inhibition entry in the assay with J774.A1 was “inactive”.
As to `CN(C)c1ccc(/C=C/C(=O)/C=C/c2ccc(N(C)C)cc2)cc1`, the inhibition was found to be 29% in assay [1]; 24% in assay [2]; 13% in assay [3]; 0% in assay [4]; 0% in assay [5]; 10% in assay [6]. The inhibition entry in the assay on J774.A1 was “inactive”.
As for `COc1cc(/C=C2\CCC/C(=C\c3cc(OC)c(OC)c(OC)c3)C2=O)cc(OC)c1OC`, the inhibition in assay [1] was 14%; in assay [2], 21%; in assay [3] it was 23%; in assay [4] it was 13%; in assay [5], 35%; in assay [6] it was 42%. Also, the inhibition entry in the assay on J774.A1 is “inactive”.
With `C=CCOc1ccc(/C=C2\CCC/C(=C\c3ccc(OCC=C)cc3)C2=O)cc1`, the inhibition in assay [1] was determined as 18%; in assay [2] it was 18%; in assay [3], 23%; in assay [4], 6%; in assay [5], 19%; in assay [6], 8%.
With `O=C1/C(=C/c2ccc(OC3CCCCO3)cc2)CC/C1=C\c1ccc(OC2CCCCO2)cc1` (centres undefined), the inhibition is 9% in assay [1]; 30% in assay [2]; 13% in assay [3]; 0% in assay [4]; 11% in assay [5]; 22% in assay [6]. In the assay on J774.A1, the inhibition entry was “inactive”.
Regarding `C=CCOc1ccc(/C=C2\CCC/C(=C\c3ccc(OCC=C)c(OC)c3)C2=O)cc1OC`, the inhibition was determined as 16% in assay [1]; 7% in assay [2]; 8% in assay [3]; 6% in assay [4]; 15% in assay [5]; 6% in assay [6].
